Reference: article PMC11864979, “First-in-class ultralong-target-residence-time p38α inhibitors as a mitosis-targeted therapy for colorectal cancer” (Nature Cancer, 2025)
Read-outs that look alike come from different tables or passages of the source.

Legend:
Assay in all cases: selectivity profiling in a panel of 340 wild-type kinases (Reaction Biology Europe)
Format in all cases: binding
340 wild-type kinases [1] = target: T1, 340 wild-type kinases (Homo sapiens, UniProt P42685)
T1 construct: purchased Reaction Biology Europe
T1 sequence (P42685 whole entry): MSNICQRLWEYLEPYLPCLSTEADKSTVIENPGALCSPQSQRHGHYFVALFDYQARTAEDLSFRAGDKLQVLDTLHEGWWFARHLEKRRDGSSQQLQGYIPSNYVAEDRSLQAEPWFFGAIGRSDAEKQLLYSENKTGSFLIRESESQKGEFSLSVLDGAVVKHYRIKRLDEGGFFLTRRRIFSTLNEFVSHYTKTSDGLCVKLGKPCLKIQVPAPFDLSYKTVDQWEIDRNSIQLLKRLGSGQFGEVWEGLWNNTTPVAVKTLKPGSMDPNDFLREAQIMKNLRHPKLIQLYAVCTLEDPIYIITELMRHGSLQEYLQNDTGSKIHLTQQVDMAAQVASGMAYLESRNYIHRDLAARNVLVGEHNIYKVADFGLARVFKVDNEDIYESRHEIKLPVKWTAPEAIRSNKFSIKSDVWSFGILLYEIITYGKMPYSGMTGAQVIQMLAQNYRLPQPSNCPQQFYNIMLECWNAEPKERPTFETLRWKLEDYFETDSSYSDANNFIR

340 wild-type kinases [2] = target: T2, 340 wild-type kinases (Homo sapiens, UniProt P78527)
T2 construct: purchased Reaction Biology Europe
T2 sequence (P78527 whole entry): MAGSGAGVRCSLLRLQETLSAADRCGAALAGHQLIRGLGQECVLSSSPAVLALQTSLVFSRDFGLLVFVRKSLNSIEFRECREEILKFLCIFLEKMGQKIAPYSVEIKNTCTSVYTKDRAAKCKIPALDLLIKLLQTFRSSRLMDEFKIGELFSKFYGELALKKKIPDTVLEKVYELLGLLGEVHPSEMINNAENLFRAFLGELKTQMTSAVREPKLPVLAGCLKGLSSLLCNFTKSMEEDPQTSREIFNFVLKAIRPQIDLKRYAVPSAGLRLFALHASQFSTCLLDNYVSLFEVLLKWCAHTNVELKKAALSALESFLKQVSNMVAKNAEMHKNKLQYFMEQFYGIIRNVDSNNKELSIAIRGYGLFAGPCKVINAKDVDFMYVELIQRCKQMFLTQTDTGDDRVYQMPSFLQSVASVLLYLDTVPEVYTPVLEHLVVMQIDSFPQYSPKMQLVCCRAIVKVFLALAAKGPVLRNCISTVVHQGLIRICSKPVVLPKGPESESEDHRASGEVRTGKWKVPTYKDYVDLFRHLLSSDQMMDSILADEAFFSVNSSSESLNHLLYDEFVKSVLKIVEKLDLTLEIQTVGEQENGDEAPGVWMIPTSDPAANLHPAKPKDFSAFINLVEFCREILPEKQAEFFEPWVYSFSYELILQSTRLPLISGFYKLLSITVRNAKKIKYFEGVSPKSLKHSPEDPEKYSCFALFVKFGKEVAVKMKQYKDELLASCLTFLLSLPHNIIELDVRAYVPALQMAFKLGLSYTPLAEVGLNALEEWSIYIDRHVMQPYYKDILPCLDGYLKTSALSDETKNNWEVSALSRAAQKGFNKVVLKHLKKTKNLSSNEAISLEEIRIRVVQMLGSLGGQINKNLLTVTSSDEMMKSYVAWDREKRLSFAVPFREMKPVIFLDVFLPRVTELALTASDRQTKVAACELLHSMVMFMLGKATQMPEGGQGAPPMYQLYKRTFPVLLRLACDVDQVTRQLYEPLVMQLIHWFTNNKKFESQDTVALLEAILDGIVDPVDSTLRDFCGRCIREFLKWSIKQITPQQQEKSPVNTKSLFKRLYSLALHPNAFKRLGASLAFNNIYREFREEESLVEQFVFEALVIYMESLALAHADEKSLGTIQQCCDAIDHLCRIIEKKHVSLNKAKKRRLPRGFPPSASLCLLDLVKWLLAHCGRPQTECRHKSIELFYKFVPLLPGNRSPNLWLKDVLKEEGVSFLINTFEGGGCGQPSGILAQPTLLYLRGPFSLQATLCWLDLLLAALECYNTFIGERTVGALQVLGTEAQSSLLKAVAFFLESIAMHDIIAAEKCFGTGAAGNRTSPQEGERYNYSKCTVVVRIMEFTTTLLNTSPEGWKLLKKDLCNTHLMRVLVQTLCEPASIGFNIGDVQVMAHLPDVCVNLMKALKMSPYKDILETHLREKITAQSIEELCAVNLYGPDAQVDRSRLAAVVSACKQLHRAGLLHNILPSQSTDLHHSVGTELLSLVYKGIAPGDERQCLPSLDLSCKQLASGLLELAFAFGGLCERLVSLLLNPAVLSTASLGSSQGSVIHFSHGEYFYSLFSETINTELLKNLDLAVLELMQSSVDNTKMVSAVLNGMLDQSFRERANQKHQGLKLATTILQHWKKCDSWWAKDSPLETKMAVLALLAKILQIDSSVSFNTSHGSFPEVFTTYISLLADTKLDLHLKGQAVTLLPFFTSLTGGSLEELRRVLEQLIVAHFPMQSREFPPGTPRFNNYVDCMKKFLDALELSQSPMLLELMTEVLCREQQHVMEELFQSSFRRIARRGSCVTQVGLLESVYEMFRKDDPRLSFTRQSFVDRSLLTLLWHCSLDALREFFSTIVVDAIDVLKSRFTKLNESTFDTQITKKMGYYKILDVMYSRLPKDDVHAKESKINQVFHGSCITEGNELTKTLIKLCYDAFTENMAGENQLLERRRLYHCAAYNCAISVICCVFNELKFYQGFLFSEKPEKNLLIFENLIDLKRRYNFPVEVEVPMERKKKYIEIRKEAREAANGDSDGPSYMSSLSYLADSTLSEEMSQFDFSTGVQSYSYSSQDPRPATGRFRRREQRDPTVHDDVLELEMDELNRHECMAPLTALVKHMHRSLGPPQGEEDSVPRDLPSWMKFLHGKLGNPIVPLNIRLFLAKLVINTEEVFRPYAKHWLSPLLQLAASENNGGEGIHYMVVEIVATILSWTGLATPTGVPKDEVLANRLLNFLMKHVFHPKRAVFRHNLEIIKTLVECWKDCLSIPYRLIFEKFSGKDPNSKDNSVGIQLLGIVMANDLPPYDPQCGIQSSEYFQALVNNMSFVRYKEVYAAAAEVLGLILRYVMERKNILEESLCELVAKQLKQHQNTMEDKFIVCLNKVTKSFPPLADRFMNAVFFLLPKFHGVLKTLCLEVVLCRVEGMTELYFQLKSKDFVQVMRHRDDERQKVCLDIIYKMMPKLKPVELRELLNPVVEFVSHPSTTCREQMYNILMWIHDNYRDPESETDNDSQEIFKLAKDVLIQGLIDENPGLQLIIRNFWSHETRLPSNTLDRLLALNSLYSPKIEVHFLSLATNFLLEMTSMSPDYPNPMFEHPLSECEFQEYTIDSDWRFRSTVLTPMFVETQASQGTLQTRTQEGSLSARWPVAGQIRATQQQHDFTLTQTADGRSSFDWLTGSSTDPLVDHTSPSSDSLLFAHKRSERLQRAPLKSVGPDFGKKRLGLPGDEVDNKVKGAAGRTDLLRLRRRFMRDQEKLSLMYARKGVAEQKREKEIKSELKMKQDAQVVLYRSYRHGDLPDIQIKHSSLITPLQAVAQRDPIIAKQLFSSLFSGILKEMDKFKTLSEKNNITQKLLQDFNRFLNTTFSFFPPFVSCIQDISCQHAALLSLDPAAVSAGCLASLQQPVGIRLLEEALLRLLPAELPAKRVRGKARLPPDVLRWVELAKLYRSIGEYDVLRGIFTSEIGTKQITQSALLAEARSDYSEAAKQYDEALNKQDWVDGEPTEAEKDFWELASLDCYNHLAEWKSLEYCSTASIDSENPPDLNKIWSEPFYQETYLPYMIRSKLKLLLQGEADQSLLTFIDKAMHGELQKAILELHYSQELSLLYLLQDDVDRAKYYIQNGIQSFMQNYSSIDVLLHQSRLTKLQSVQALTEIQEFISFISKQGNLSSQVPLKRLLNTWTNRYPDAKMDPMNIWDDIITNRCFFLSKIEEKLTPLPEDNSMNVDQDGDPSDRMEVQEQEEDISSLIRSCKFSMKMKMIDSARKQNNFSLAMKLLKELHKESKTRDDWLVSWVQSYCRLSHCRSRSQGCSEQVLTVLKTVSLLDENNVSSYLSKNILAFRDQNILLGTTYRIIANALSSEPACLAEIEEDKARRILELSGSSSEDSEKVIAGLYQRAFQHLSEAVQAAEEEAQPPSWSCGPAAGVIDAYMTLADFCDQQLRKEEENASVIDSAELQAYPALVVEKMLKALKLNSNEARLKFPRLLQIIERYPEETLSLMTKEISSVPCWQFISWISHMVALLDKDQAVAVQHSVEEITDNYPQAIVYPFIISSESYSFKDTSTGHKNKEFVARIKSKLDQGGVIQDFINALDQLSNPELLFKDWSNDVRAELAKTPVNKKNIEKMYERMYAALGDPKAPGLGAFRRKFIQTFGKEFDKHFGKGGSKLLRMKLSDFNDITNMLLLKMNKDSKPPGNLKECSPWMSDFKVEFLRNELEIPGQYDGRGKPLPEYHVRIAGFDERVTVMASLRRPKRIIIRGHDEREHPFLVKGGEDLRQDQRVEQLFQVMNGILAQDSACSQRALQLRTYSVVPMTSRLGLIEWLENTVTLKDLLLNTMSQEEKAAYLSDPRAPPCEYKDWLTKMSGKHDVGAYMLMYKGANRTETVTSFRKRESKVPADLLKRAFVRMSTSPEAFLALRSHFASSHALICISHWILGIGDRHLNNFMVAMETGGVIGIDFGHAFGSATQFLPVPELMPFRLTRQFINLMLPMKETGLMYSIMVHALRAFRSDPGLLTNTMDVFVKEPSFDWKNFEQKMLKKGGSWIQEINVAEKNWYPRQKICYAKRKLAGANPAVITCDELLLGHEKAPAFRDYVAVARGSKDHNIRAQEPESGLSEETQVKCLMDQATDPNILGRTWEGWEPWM

340 wild-type kinases [3] = target: T3, 340 wild-type kinases (Homo sapiens, UniProt P54753)
T3 construct: purchased Reaction Biology Europe
T3 sequence (P54753 34-998): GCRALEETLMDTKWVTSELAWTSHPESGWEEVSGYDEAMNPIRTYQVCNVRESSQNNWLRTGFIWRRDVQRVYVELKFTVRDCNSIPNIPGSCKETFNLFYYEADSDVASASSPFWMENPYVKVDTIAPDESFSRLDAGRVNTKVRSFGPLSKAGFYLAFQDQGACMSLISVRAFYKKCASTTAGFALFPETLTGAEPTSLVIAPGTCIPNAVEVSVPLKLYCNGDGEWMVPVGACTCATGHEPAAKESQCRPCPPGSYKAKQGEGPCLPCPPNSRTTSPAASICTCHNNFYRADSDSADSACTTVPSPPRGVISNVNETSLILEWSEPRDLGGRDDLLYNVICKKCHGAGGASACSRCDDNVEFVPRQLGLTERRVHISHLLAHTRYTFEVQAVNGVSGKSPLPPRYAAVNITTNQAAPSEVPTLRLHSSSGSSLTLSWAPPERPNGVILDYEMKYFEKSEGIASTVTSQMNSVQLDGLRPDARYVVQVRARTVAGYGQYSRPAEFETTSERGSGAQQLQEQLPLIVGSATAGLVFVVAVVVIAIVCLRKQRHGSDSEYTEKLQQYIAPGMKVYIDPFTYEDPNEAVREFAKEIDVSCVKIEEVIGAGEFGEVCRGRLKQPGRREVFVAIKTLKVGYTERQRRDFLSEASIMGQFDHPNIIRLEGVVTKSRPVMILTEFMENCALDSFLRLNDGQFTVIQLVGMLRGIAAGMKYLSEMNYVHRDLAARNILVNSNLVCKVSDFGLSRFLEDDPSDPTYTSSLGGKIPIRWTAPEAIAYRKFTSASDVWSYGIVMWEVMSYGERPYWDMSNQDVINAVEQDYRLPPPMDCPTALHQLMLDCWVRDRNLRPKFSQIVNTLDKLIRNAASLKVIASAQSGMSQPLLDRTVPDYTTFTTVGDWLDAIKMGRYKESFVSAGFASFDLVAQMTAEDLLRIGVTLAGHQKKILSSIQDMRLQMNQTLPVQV

340 wild-type kinases [4] = target: T4, 340 wild-type kinases (Homo sapiens, UniProt P57059)
T4 construct: purchased Reaction Biology Europe

340 wild-type kinases [5] = target: T5, 340 wild-type kinases (Homo sapiens, UniProt P54764)
T5 construct: purchased Reaction Biology Europe

340 wild-type kinases [6] = target: T6, 340 wild-type kinases (Homo sapiens, UniProt O00506)
T6 construct: purchased Reaction Biology Europe
T6 sequence (O00506 whole entry): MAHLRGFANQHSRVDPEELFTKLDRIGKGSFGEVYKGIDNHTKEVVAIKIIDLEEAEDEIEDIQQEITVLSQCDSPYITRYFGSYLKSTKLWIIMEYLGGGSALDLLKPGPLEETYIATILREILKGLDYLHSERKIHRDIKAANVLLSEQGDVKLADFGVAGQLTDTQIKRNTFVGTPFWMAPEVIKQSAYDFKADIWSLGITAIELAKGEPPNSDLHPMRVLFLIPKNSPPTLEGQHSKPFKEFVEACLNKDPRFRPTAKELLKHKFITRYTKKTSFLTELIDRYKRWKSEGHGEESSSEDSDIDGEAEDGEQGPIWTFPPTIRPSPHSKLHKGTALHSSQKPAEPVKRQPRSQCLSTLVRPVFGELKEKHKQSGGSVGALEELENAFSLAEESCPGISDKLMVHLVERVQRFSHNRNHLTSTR

340 wild-type kinases [7] = target: T7, 340 wild-type kinases (Homo sapiens, UniProt O14920)
T7 construct: purchased Reaction Biology Europe
T7 sequence (O14920 1-756): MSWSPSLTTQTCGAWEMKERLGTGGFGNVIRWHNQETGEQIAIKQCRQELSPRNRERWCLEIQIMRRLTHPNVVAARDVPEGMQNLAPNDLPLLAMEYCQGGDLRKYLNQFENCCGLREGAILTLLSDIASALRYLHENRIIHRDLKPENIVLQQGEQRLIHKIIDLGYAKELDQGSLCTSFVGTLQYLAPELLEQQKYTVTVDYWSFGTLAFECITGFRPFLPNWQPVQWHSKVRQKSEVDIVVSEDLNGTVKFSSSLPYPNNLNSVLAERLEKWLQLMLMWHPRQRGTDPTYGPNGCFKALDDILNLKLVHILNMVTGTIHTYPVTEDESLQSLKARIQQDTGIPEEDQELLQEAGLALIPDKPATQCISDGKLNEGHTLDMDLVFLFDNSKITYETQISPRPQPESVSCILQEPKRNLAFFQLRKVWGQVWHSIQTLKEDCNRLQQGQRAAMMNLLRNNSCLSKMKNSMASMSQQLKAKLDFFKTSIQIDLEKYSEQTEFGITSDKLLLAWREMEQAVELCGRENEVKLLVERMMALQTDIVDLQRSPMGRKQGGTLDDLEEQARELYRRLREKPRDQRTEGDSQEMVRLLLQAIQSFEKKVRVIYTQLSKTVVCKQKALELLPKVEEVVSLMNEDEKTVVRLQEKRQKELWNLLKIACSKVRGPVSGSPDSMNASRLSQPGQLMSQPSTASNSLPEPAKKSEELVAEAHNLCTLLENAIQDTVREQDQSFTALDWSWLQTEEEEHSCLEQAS

340 wild-type kinases [8] = target: T8, 340 wild-type kinases (Homo sapiens, UniProt Q9Y2H1)
T8 construct: purchased Reaction Biology Europe

Question: How did the remaining activity at 0.2 µM (340 wild-type kinases [1]; 0.2 µM 2015, read-out: FRK residual activity) turn out when `CNC(=O)c1ccc2c(c1)C(=O)c1ccc(Nc3ccc(F)c(NC(=O)C4CC4)c3)cc1CC2` [Compound 2015] was run?
Answer: Its remaining activity at 0.2 µM is 126%.

Question: And the remaining activity at 1 µM (340 wild-type kinases [1]; 1 µM 2015, read-out: FRK residual activity)?
Answer: The remaining activity at 1 µM was 110%.

Question: What about the remaining activity at 0.2 µM (340 wild-type kinases [1]; FRK, 0.2 µM, read-out: residual activity) of the same compound?
Answer: Its remaining activity at 0.2 µM is 126%.

Question: And the remaining activity at 1 µM (340 wild-type kinases [1]; FRK, 1 µM, read-out: residual activity)?
Answer: Its remaining activity at 1 µM is 110%.

Question: What about the remaining activity at 0.2 µM (340 wild-type kinases [2]; 0.2 µM 2015, read-out: DNAPK residual activity) of the same compound?
Answer: Its remaining activity at 0.2 µM is 111%.

Question: What about the remaining activity at 1 µM (340 wild-type kinases [2]; 1 µM 2015, read-out: DNAPK residual activity) of the same compound?
Answer: Its remaining activity at 1 µM is 99.6%.

Question: What about the remaining activity at 0.2 µM (340 wild-type kinases [2]; DNAPK, 0.2 µM, read-out: residual activity) of the same compound?
Answer: The remaining activity at 0.2 µM was 111%.

Question: And the remaining activity at 1 µM (340 wild-type kinases [2]; DNAPK, 1 µM, read-out: residual activity)?
Answer: The remaining activity at 1 µM was 99.6%.

Question: And the remaining activity at 0.2 µM (340 wild-type kinases [3]; 0.2 µM 2015, read-out: EPHB3 residual activity)?
Answer: The remaining activity at 0.2 µM was 97.2%.

Question: And the remaining activity at 1 µM (340 wild-type kinases [3]; 1 µM 2015, read-out: EPHB3 residual activity)?
Answer: The remaining activity at 1 µM was 96.8%.

Question: And the remaining activity at 0.2 µM (340 wild-type kinases [3]; EPHB3, 0.2 µM, read-out: residual activity)?
Answer: The remaining activity at 0.2 µM was 97.2%.

Question: What about the remaining activity at 1 µM (340 wild-type kinases [3]; EPHB3, 1 µM, read-out: residual activity) of the same compound?
Answer: Its remaining activity at 1 µM is 96.8%.

Question: And the remaining activity at 0.2 µM (340 wild-type kinases [4]; 0.2 µM 2015, read-out: SIK1 residual activity)?
Answer: Its remaining activity at 0.2 µM is 90.9%.

Question: And the remaining activity at 1 µM (340 wild-type kinases [4]; 1 µM 2015, read-out: SIK1 residual activity)?
Answer: The remaining activity at 1 µM was 85.5%.

Question: And the remaining activity at 0.2 µM (340 wild-type kinases [4]; SIK1, 0.2 µM, read-out: residual activity)?
Answer: Its remaining activity at 0.2 µM is 90.9%.

Question: And the remaining activity at 1 µM (340 wild-type kinases [4]; SIK1, 1 µM, read-out: residual activity)?
Answer: The remaining activity at 1 µM was 85.5%.

Question: What about the remaining activity at 0.2 µM (340 wild-type kinases [5]; 0.2 µM 2015, read-out: EPHA4 residual activity) of the same compound?
Answer: The remaining activity at 0.2 µM was 95.1%.

Question: And the remaining activity at 1 µM (340 wild-type kinases [5]; 1 µM 2015, read-out: EPHA4 residual activity)?
Answer: The remaining activity at 1 µM was 91.4%.

Question: What about the remaining activity at 0.2 µM (340 wild-type kinases [5]; EPHA4, 0.2 µM, read-out: residual activity) of the same compound?
Answer: Its remaining activity at 0.2 µM is 95.1%.

Question: And the remaining activity at 1 µM (340 wild-type kinases [5]; EPHA4, 1 µM, read-out: residual activity)?
Answer: Its remaining activity at 1 µM is 91.5%.

Question: And the remaining activity at 0.2 µM (340 wild-type kinases [6]; 0.2 µM 2015, read-out: STK25 residual activity)?
Answer: The remaining activity at 0.2 µM was 88.2%.

Question: And the remaining activity at 1 µM (340 wild-type kinases [6]; 1 µM 2015, read-out: STK25 residual activity)?
Answer: The remaining activity at 1 µM was 83.6%.

Question: And the remaining activity at 0.2 µM (340 wild-type kinases [6]; STK25, 0.2 µM, read-out: residual activity)?
Answer: Its remaining activity at 0.2 µM is 88.2%.

Question: And the remaining activity at 1 µM (340 wild-type kinases [6]; STK25, 1 µM, read-out: residual activity)?
Answer: The remaining activity at 1 µM was 83.6%.

Question: What about the remaining activity at 0.2 µM (340 wild-type kinases [7]; 0.2 µM 2015, read-out: IKKbeta residual activity) of the same compound?
Answer: The remaining activity at 0.2 µM was 108%.

Question: And the remaining activity at 1 µM (340 wild-type kinases [7]; 1 µM 2015, read-out: IKKbeta residual activity)?
Answer: The remaining activity at 1 µM was 99%.

Question: What about the remaining activity at 0.2 µM (340 wild-type kinases [7]; IKKbeta, 0.2 µM, read-out: residual activity) of the same compound?
Answer: The remaining activity at 0.2 µM was 108%.

Question: What about the remaining activity at 1 µM (340 wild-type kinases [7]; IKKbeta, 1 µM, read-out: residual activity) of the same compound?
Answer: Its remaining activity at 1 µM is 99%.

Question: What about the remaining activity at 0.2 µM (340 wild-type kinases [8]; 0.2 µM 2015, read-out: NDR2 residual activity) of the same compound?
Answer: Its remaining activity at 0.2 µM is 97.8%.

Question: And the remaining activity at 1 µM (340 wild-type kinases [8]; 1 µM 2015, read-out: NDR2 residual activity)?
Answer: The remaining activity at 1 µM was 96.6%.

Question: And the remaining activity at 0.2 µM (340 wild-type kinases [8]; NDR2, 0.2 µM, read-out: residual activity)?
Answer: Its remaining activity at 0.2 µM is 97.8%.

Question: What about the remaining activity at 1 µM (340 wild-type kinases [8]; NDR2, 1 µM, read-out: residual activity) of the same compound?
Answer: Its remaining activity at 1 µM is 96.7%.
